# Patent US8637557B2, “Aminothiazole derivative” (Taisho Pharmaceutical Co., Ltd, priority 2009, dated 2014)
# Molecular target: T1, human PI 3-kinase p120γ (Homo sapiens, UniProt P48736)
# T1 construct: purchased Millipore Corporation
# Assay: PI 3-kinase p120γ enzyme activity inhibition test
# Format: biochemical
# Conditions: ATP 10.0 μM, PIP2-PS 5.0 μM, 30° C., 2 hours; read-out: PI3Kγ (IC50 value class)
# Procedure: Using human PI 3-kinase p120γ (manufactured by Millipore Corporation) and a mixed micellized product (hereinafter abbreviated as PIP2-PS) of the substrate thereof, L-a-Phosphatidyl-D-myo-inositol-4,5-bisphosphate (product of Calbiochem, hereinafter abbreviated as PIP2), and L-a-Phosphatidyl-L-Serine (manufactured by Sigma, hereinafter abbreviated as PS), the compound of the present invention was examined for the inhibitory action on PI3 Kinase p120γ enzyme activity (Km=8.9 μM for ATP, Km=4.0 μM for PIP2-PS).
# PIP2-PS was prepared by mixing 500 μM of PIP2 and 2.5 nM of PS and sonicating the mixture for 40 minutes while ice cooling to cause micellization. ATP (final concentration 10.0 μM), [γ-^33P] ATP (final concentration 10 μCi/ml), PIP2-PS (final concentration 5.0 μM) and DMSO solutions of the test compound in different concentrations (compound final concentration 1.0×10^−5 to 2.4×10^−12 M, DMSO final concentration 0.1%) were added to PI 3-kinase p120γ, stirred and reacted at 30° C. for 2 hours. Using Phospholipid-Coated FlashPlate Microplates, 96-Well and Phospholipid FlashPlate Coating Buffer (both manufactured by PerkinElmer Co., Ltd.), PIP2-PS and phosphorylated PIP2-PS were allowed to be adsorbed to the well wall of the plate and collected. The well was washed twice with PBS (Phosphate-Buffered Saline) and dried. The radioactivity was measured using Top Count NXT (manufactured by PerkinElmer Co., Ltd.), whereby the phosphorylated amount (a) of PIP2-PS at the time of compound addition was calculated.
# The same procedure was carried out in the absence of the test compound and the phosphorylated amount (b) of PIP2-PS was calculated. Further, the same procedure was carried out in the absence of both of the substrate and the test compound, and the PIP2-PS phosphorylated amount (c) of the background was calculated.
# The PI3 Kinase p120γ enzyme activity suppression rate of the compound was calculated by the following formula. Suppression rate (%)=[1−(a−c)/(b−c)]×100
# More specifically, using the suppression rate by the test compound of different concentrations, the IC50 value was calculated according to the dose-dependent inhibition curve analyzed by a data analysis software Origin (Lightstone Corp.) and used as the inhibitory activity index.
# T1 sequence (P48736 whole entry): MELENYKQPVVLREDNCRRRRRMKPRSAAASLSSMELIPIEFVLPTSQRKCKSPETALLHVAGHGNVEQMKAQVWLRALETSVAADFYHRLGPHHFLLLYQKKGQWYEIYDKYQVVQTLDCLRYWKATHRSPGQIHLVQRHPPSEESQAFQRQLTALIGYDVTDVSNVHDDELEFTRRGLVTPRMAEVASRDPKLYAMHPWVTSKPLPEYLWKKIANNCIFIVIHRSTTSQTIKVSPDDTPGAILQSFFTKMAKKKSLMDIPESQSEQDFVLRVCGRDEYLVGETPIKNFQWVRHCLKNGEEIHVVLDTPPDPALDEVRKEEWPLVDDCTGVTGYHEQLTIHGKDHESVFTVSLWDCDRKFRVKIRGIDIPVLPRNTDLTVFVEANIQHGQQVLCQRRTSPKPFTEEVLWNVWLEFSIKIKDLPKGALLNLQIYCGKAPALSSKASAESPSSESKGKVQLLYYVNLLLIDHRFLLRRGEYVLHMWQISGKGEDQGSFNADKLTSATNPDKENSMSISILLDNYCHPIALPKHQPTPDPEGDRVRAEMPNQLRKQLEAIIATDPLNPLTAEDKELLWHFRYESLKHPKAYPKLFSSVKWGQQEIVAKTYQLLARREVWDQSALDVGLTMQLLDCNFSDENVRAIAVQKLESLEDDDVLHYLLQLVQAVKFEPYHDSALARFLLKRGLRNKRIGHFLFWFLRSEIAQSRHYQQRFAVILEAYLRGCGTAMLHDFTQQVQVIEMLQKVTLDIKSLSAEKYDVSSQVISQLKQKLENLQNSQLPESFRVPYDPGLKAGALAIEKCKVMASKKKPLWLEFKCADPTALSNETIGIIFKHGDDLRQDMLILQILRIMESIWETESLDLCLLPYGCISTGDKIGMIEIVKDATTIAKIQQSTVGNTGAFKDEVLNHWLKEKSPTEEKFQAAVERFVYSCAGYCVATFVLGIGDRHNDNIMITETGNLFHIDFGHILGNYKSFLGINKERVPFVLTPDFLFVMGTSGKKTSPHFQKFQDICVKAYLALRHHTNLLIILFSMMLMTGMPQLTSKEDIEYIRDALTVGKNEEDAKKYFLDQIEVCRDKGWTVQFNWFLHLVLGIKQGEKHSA
row,Compound,IC50 [µM]
1,Cc1nc(NC(=O)NCCCN2CCOCC2)sc1-c1nc(-c2cccnc2)no1 [Example 142],< 0.1
2,CCOC(=O)CC(C)NC(=O)Nc1nc(C)c(-c2nc(-c3cccnc3)no2)s1 (stereo not drawn) [Example 143],< 0.1
3,CCOC(=O)[C@H]1CCCC1NC(=O)Nc1nc(C)c(-c2nc(-c3cccnc3)no2)s1 (stereo partly drawn) [Example 144],< 0.1
4,Cc1nc(NC(=O)NCCC(=O)N2CCOCC2)sc1-c1nc(-c2cccnc2)no1 [Example 145],< 0.1
5,Cc1nc(N)sc1-c1nc(CC(F)(F)F)no1 [Example 146],< 0.1
6,Cc1nc(NC(=O)NCCC(=O)OC(C)(C)C)sc1-c1nc(CC(F)(F)F)no1 [Example 147],< 0.1
7,Cc1nc(NC(=O)NCCCNC(C)(C)C)sc1-c1nc(-c2cccnc2)no1 [Example 148],< 0.1
8,Cc1nc(NC(=O)NCCC(=O)NC(C)(C)CO)sc1-c1nc(-c2cccnc2)no1 [Example 149],< 0.1
9,Cc1nc(NC(=O)NCCC(=O)N2CCC(O)CC2)sc1-c1nc(-c2cccnc2)no1 [Example 150],< 0.1
10,Cc1nc(NC(=O)NCCC(=O)OCCO)sc1-c1nc(-c2cccnc2)no1 [Example 151],< 0.1
11,Cc1nc(NC(=O)NCCC(=O)NC(C)(CO)CO)sc1-c1nc(-c2cccnc2)no1 [Example 152],< 0.1
12,Cc1nc(NC(=O)NCCC(=O)OC(C)(C)C)sc1-c1nc(C2CCCCC2)no1 [Example 153],< 0.1
13,COCCc1noc(-c2sc(NC(=O)NCCC(=O)OC(C)(C)C)nc2C)n1 [Example 154],< 0.1
14,Cc1nc(N)sc1-c1nc(CC(C)(C)CO)no1 [Example 156],< 0.1
15,Cc1nc(NC(=O)NCCC(=O)OC(C)(C)C)sc1-c1nc(CC(C)(C)CO)no1 [Example 157],< 0.1
16,CCOC(=O)Nc1nc(C)c(-c2nc(CC(C)(C)CO)no2)s1 [Example 158],< 0.1
17,Cc1nc(NC(=O)NCCCN2CCCC2=O)sc1-c1nc(CC(C)(C)CO)no1 [Example 159],< 0.1

row,Compound,IC50 [µM]
1,Cc1nc(NC(=O)NCCCOC(C)(C)C)sc1-c1nc(CC(C)(C)CO)no1 [Example 160],< 0.1
2,Cc1nc(NC(=O)NCCC(=O)NC(C)(C)C)sc1-c1nc(CC(C)(C)CO)no1 [Example 161],< 0.1
3,Cc1nc(NC(=O)NCCc2cn(C(C)C)cn2)sc1-c1nc(CC(C)(C)CO)no1 [Example 162],< 0.1
4,Cc1nc(NC(=O)CCNC(=O)OC(C)(C)C)sc1-c1nc(CC(C)(C)CO)no1 [Example 163],0.1 to 0.5
5,Cc1nc(NC(=O)NCCC(=O)NC(C)(CO)CO)sc1-c1nc(CC(F)(F)F)no1 [Example 164],< 0.1
6,Cc1nc(NC(=O)NCCC(=O)N2CCC(O)CC2)sc1-c1nc(CC(F)(F)F)no1 [Example 166],< 0.1
7,COCCNC(=O)CCNC(=O)Nc1nc(C)c(-c2nc(CC(F)(F)F)no2)s1 [Example 167],< 0.1
8,Cc1nc(NC(=O)NCCC(=O)N2CCN(C(=O)OC(C)(C)C)CC2)sc1-c1nc(CC(F)(F)F)no1 [Example 168],0.1 to 0.5
9,Cc1nc(NC(=O)NCCC(=O)N2CCNCC2)sc1-c1nc(CC(F)(F)F)no1 [Example 169],< 0.1
10,Cc1nc(NC(=O)NCCC(=O)OC(C)(C)C)sc1-c1nc(CC(C)(C)O)no1 [Example 170],< 0.1
11,Cc1nc(NC(=O)NCCc2ccccn2)sc1-c1nc(-c2cccnc2)no1 [Example 171],< 0.1
12,CCn1cnc(CCNC(=O)Nc2nc(C)c(-c3nc(-c4cccnc4)no3)s2)c1 [Example 172],< 0.1
13,COCC(=O)Nc1nc(C)c(-c2nc(-c3cccc(CO)c3)no2)s1 [Example 173],< 0.1
14,Cc1nc(NC(=O)NCC(C)O)sc1-c1nc(-c2cccc(O)c2)no1 (stereo not drawn) [Example 174],< 0.1
15,Cc1nc(NC(=O)NCC(C)O)sc1-c1nc(-c2cccnc2)no1 (stereo not drawn) [Example 175],< 0.1
16,Cc1nc(NC(=O)NCC(C)O)sc1-c1nc(-c2cncnc2)no1 (stereo not drawn) [Example 176],< 0.1
